This note sets out measurements from PubChem BioAssay (NCI).

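48-hour exposure; five concentrations; linearly interpolated endpoints. The concentration for full growth arrest is given as TGI.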

Test systems include CAKI-1 renal; HCT-116 colon; HT29 colon; LOX IMVI melanoma; M14 melanoma; NCI-H23 lung; OVCAR-4 ovarian; SNB-75 CNS; SR leukemia; K-562 leukemia; MOLT-4 leukemia; BT-549 breast; DU-145 prostate; MDA-MB-435.
Test in all cases: NCI anticancer screen, dose series, 48 h

As for `COc1cc2c(cc1OC)[C@H]1C(COC(=O)c3ccccc3)CSC(=Nc3ccccc3)N1CC2` (stereo partly specified), the TGI with CAKI-1 renal, in the assay with HCT-116 colon, with HT29 colon, in the assay on LOX IMVI melanoma, in the assay with M14 melanoma and in the assay on NCI-H23 lung was > 100 µM each time. Also, the TGI with OVCAR-4 ovarian, with SNB-75 CNS and with SR leukemia was > 100 µM in each case.
For `COc1ccc2c(c1)Oc1cc(O)ccc1[C@@H]2c1ccccc1C(=O)NC(C)c1ccccc1` (stereo partly specified), the TGI was 42.2 µM in the assay on CAKI-1 renal; 24.8 µM in the assay with HCT-116 colon; 34 µM in the assay on HT29 colon; > 100 µM in the assay with K-562 leukemia; 30.4 µM in the assay on LOX IMVI melanoma; 24.6 µM in the assay on M14 melanoma. In addition, the TGI was 36.2 µM with MOLT-4 leukemia, 35.5 µM in the assay on NCI-H23 lung and 36.3 µM in the assay on SNB-75 CNS.
Turning to `CCOC(=O)/C(=C\c1cccs1)P(=O)(OCC)OCC`, the TGI in the assay with CAKI-1 renal is 35.4 µM; in the assay with HCT-116 colon it was 33.7 µM; with HT29 colon, 36.3 µM; in the assay on K-562 leukemia it was > 100 µM; with LOX IMVI melanoma, 37.5 µM; in the assay with M14 melanoma, 33.2 µM. Also, the TGI was > 100 µM in the assay on MOLT-4 leukemia; 35.2 µM in the assay on NCI-H23 lung; 37.5 µM in the assay with OVCAR-4 ovarian; > 100 µM in the assay with SNB-75 CNS; > 100 µM with SR leukemia.
As to `COc1cc(C(O)C(=O)c2nc3ccc([N+](=O)[O-])cc3[nH]c2=O)ccc1O` (stereo unspecified), the TGI in the assay with CAKI-1 renal, with HCT-116 colon, with HT29 colon, with K-562 leukemia, in the assay on LOX IMVI melanoma and in the assay with M14 melanoma was > 100 µM in each case. Further, the TGI with MOLT-4 leukemia, with NCI-H23 lung, in the assay with OVCAR-4 ovarian and in the assay on SR leukemia was > 100 µM throughout.
With `CC(=O)C(CN(Cc1ccccc1)Cc1ccccc1)C(c1ccccc1)c1c(O)c2ccccc2oc1=O` (stereo unspecified), the TGI in the assay on CAKI-1 renal, with HCT-116 colon, with HT29 colon, with K-562 leukemia, in the assay on LOX IMVI melanoma and with M14 melanoma was > 100 µM each time. For the same compound, the TGI in the assay with NCI-H23 lung, in the assay with OVCAR-4 ovarian, in the assay on SNB-75 CNS and in the assay with SR leukemia was > 100 µM each time.
Take `CC(C)(CN1CCCCC1)C(=O)/C=C/c1ccc(Cl)cc1`: the TGI worked out at 13 µM in the assay with HCT-116 colon; 11.7 µM in the assay on HT29 colon; 12.3 µM in the assay with K-562 leukemia; 12.5 µM with LOX IMVI melanoma; 9.79 µM in the assay on M14 melanoma; 5.11 µM with MOLT-4 leukemia. Also, the TGI stood at 6.76 µM with NCI-H23 lung, 16 µM in the assay on OVCAR-4 ovarian, 11.4 µM with SNB-75 CNS and 7.15 µM with SR leukemia.
Take `CC1=NN(C(=O)CC(=O)NC(=O)CC(=O)Nc2ccccc2F)C(=O)C1N=Nc1ccc([N+](=O)[O-])cc1` (stereo unspecified): the TGI in the assay with CAKI-1 renal was > 100 µM; with HCT-116 colon, 35.5 µM; with HT29 colon, 45.9 µM; in the assay with K-562 leukemia, 65.4 µM; with LOX IMVI melanoma it was 35.8 µM; with M14 melanoma it was > 100 µM. Besides, the TGI with MOLT-4 leukemia was 77.7 µM; in the assay on NCI-H23 lung it was > 100 µM; in the assay with OVCAR-4 ovarian, > 100 µM; with SNB-75 CNS, 98.2 µM.
Turning to `COC(=O)NC12CC3CC(CC(F)(C3)C1)C2`, the TGI in the assay with HCT-116 colon, in the assay with HT29 colon, with K-562 leukemia, in the assay on LOX IMVI melanoma, in the assay with M14 melanoma and with MOLT-4 leukemia was > 100 µM in each case. In addition, the TGI in the assay with NCI-H23 lung and with SNB-75 CNS was > 100 µM in each case.
Take `CN(C)CC1CCCC(CN(C)C)C1=NOC(=O)c1ccccc1` (stereo unspecified): the TGI with HCT-116 colon, in the assay on HT29 colon, with K-562 leukemia, with LOX IMVI melanoma, with M14 melanoma and with MOLT-4 leukemia was > 100 µM each time. Besides, the TGI in the assay with NCI-H23 lung, with SNB-75 CNS and in the assay with SR leukemia was > 100 µM throughout.
`COc1ccc(N2C(=O)C3c4[nH]c5ccccc5c4C4CC(C)CC(C)C4C3C2=O)cc1` (stereo unspecified): the TGI with HCT-116 colon, in the assay with HT29 colon, with K-562 leukemia, in the assay with M14 melanoma, with MOLT-4 leukemia and with NCI-H23 lung was > 100 µM each time. The TGI with OVCAR-4 ovarian, with SNB-75 CNS and in the assay on SR leukemia was > 100 µM each time.
Consider `COC(=O)NN=C1C(C)(C)C(=O)C1(C)C`, for which the TGI in the assay with HCT-116 colon, in the assay with HT29 colon, with K-562 leukemia, in the assay with LOX IMVI melanoma, in the assay with M14 melanoma and in the assay with MOLT-4 leukemia was > 100 µM in each case. Also, the TGI in the assay with NCI-H23 lung and in the assay on SNB-75 CNS was > 100 µM in each case.
`COc1c(Br)cc(/C=C(\C#N)c2cccnc2)cc1Br`: the TGI with BT-549 breast, with CAKI-1 renal, in the assay on DU-145 prostate, in the assay with HCT-116 colon, in the assay with HT29 colon and in the assay on K-562 leukemia was > 100 µM in each case. The TGI in the assay on M14 melanoma, with MOLT-4 leukemia, in the assay on NCI-H23 lung, in the assay with OVCAR-4 ovarian, with SNB-75 CNS and in the assay on SR leukemia was > 100 µM in each case.
As to `CCCCCCCCCCCCCCCCOCC(CP(=O)([O-])OCC[n+]1ccccc1)OC` (stereo unspecified), the TGI in the assay on CAKI-1 renal was 22.2 µM; with HCT-116 colon it was 22.1 µM; in the assay with HT29 colon, 15.9 µM; with K-562 leukemia it was 32.8 µM; with M14 melanoma, 17.9 µM; with MOLT-4 leukemia, 18.9 µM. Also, the TGI in the assay with NCI-H23 lung is 14.8 µM; in the assay with OVCAR-4 ovarian, 24.1 µM; in the assay with SNB-75 CNS it was 22.3 µM; in the assay with SR leukemia, 15.3 µM.
Take `CC(O)c1ccc[n+](Cc2ccccc2)c1` (stereo unspecified): the TGI in the assay on CAKI-1 renal, in the assay with HCT-116 colon, in the assay with HT29 colon, in the assay on K-562 leukemia, with LOX IMVI melanoma and with MOLT-4 leukemia was > 400 µM in each case. Moreover, the TGI in the assay with NCI-H23 lung and with SR leukemia was > 400 µM each time.
For the compound `O=C(c1ccccc1)[C@@H]1C[C@H](Sc2ccccc2)c2cc(Cl)ccc2N1`, the TGI is > 100 µM with CAKI-1 renal; 68.4 µM in the assay on HCT-116 colon; 56.3 µM with HT29 colon; 74.3 µM with K-562 leukemia; 47.7 µM with LOX IMVI melanoma; 74.5 µM in the assay with M14 melanoma. Moreover, the TGI with MOLT-4 leukemia was 60.9 µM; in the assay on NCI-H23 lung, 64.2 µM; in the assay on OVCAR-4 ovarian it was > 100 µM; in the assay on SNB-75 CNS, 58.7 µM; in the assay on SR leukemia, > 100 µM.
As for `Cn1ccc2c(C(=O)c3ccccc3)cccc2c1=O`, the TGI with CAKI-1 renal, with HCT-116 colon, in the assay with HT29 colon, in the assay on LOX IMVI melanoma, with M14 melanoma and in the assay with MOLT-4 leukemia was > 100 µM each time. Besides, the TGI in the assay with OVCAR-4 ovarian was > 100 µM; in the assay on SNB-75 CNS, 72.3 µM; in the assay on SR leukemia, > 100 µM.
For `N#CCCN(c1ccc(C=Nc2ccccc2Cl)cc1)S(=O)(=O)c1ccccc1`, the TGI in the assay on CAKI-1 renal, with HCT-116 colon, in the assay with HT29 colon, in the assay with K-562 leukemia, with LOX IMVI melanoma and in the assay on M14 melanoma was > 100 µM in each case. Besides, the TGI in the assay on MOLT-4 leukemia, with NCI-H23 lung, in the assay with OVCAR-4 ovarian, with SNB-75 CNS and with SR leukemia was > 100 µM in each case.
On to `O=C(O)CCc1cccc2c1oc1c(CCC(=O)O)cccc12`, for which the TGI in the assay on CAKI-1 renal, in the assay with HCT-116 colon, in the assay on HT29 colon, in the assay on K-562 leukemia, in the assay with LOX IMVI melanoma and with M14 melanoma was > 100 µM in each case. In addition, the TGI with MOLT-4 leukemia, in the assay on NCI-H23 lung, in the assay on OVCAR-4 ovarian, with SNB-75 CNS and with SR leukemia was > 100 µM throughout.
With `COc1ccc(/C=C2\N=C(SC)N(CN3CCCCC3)C2=O)cc1`, the TGI with DU-145 prostate, in the assay on HCT-116 colon, with HT29 colon, in the assay on K-562 leukemia, in the assay on LOX IMVI melanoma and in the assay with M14 melanoma was > 100 µM each time. Further, the TGI in the assay with MDA-MB-435, with MOLT-4 leukemia, in the assay with NCI-H23 lung, with OVCAR-4 ovarian, in the assay with SNB-75 CNS and with SR leukemia was > 100 µM throughout.
`CC(C)C(Sc1nc(-c2ccccc2)c(-c2ccccc2)[nH]1)C(=O)NN` (stereo unspecified): the TGI in the assay on CAKI-1 renal, with HCT-116 colon, in the assay with HT29 colon, in the assay with LOX IMVI melanoma, with M14 melanoma and in the assay on MOLT-4 leukemia was > 100 µM each time. Besides, the TGI in the assay with NCI-H23 lung, in the assay with OVCAR-4 ovarian and in the assay with SNB-75 CNS was > 100 µM throughout.
